Reference: US9745328B2, “Flap modulators” (JANSSEN PHARMACEUTICA NV, priority 2013, dated 2017)
Structures can show the parent of a compound that is named as a salt.

Target: human FLAP (Homo sapiens (Human), UniProt P20292)
Test: FLAP binding assay (HTRF format)
Conditions: Table 6 (additional runs), human FLAP wild type
Method in brief: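 Reported data take the mean of two different plates carrying duplicate samples and use the HTRF ratio as the measured signal.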

human FLAP, sequence (P20292 whole entry): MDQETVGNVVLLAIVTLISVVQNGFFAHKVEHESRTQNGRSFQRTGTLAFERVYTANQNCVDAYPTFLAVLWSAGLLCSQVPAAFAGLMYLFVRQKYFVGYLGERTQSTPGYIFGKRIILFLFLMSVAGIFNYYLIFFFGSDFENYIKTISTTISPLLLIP

First: Nc1cnc(-c2ccc(-c3ccccc3S(=O)(=O)N3CC(O)C3)cc2F)cn1 [Example 119, 1-{[4′-(5-Aminopyrazin-2-yl)-3′-fluorobiphenyl-2-yl]sulfonyl}azetidin-3-ol]
Second: Nc1cnc(-c2ccc(-c3ccccc3S(=O)(=O)N3CC[C@H](O)C3)cc2F)cn1 [Example 184, (3S)-1-{[4′-(5-Aminopyrazin-2-yl)-3′-fluorobiphenyl-2-yl]sulfonyl}pyrrolidin-3-ol]
The Ki of the first is 3.3-fold lower: 2.7 nM for the first, 8.9 nM for the second. The first binds more tightly here.

Compared with `CN[C@@H]1CCN(S(=O)(=O)c2ccccc2-c2ccc(-c3cnc(N)cn3)c(F)c2)C1` [Example 126, (R)-5-(3-Fluoro-2′-{[3-(methylamino)pyrrolidin-1-yl]sulfonyl}biphenyl-4-yl)pyrazin-2-amine], `Nc1cnc(-c2ccc(-c3ccccc3S(=O)(=O)N3CC[C@@H](O)C3)cc2F)cn1` [Example 185, (3R)-1-{[4′-(5-Aminopyrazin-2-yl)-3′-fluoroblphenyl-2-yl]sulfonyl}pyrrolidin-3-ol] is 15-fold lower in Ki: 141 nM for the first, 9.5 nM for the second.

`Nc1cnc(-c2ccc(-c3ccccc3S(=O)(=O)N3CCc4[nH]ncc4C3)cc2F)cn1` [Example 128, 5-[3-Fluoro-2′-(1,4,6,7-tetrahydro-5H-pyrazolo[4,3-c]pyridin-5-ylsulfonyl)biphenyl-4-yl]pyrazin-2-amine] and `Nc1cnc(-c2ccc(-c3ccccc3S(=O)(=O)N3CCC(c4c[nH]cn4)CC3)cc2F)cn1` [Example 164, 5-(3-Fluoro-2′-{[4-(1H-imidazol-4′-yl)piperidin-1-yl]sulfonyl}biphenyl-4-yl)pyrazin-2-amine] are the same in Ki: 0.8 nM for the first, 0.8 nM for the second.

`Nc1cnc(-c2ccc(-c3ccccc3S(=O)(=O)NCCCCCO)cc2F)cn1` [Example 132, 4′-(5-Aminopyrazin-2-yl)-3′-fluoro-N-(5-hydroxypentyl)biphenyl-2-sulfonamide] and `N#CCCNS(=O)(=O)c1ccccc1-c1ccc(-c2cnc(N)cn2)c(F)c1` [Example 169, 4′-(5-Aminopyrazin-2-yl)-N-(2-cyanoethyl)-3′-fluorobiphenyl-2-sulfanamide] are within 1.5-fold of each other in Ki: 2.4 nM for the first, 2.9 nM for the second.

Going from `Nc1cnc(-c2ccc(-c3ccccc3S(=O)(=O)N[C@H]3CC[C@@H](N)CC3)cc2F)cn1` [Example 134, N-(4-Aminocyclohexyl)-4′-(5-aminopyrazin-2-yl)-3′-fluorobiphenyl-2-sulfonamide] to `Nc1cnc(-c2ccc(-c3ccccc3S(=O)(=O)C3CC3)cc2F)cn1` [Example 197, 5-[2′-(Cyclopropylsulfonyl)-3-fluorobiphenyl-4-yl]pyrazin-2-amine], the Ki rises from 1.3 nM to 7.1 nM (5.5-fold).

`Nc1cnc(-c2ccc(-c3ccccc3S(=O)(=O)N3c4ccccc4C[C@H]3CO)cc2F)cn1` [Example 135, (S)-(1-{[4′-(5-Aminopyrazin-2-yl)-3′-fluorobiphenyl-2-yl]sulfonyl}-2,3-dihydro-1H-indol-2-yl)methanol] and `Nc1cnc(-c2ccc(-c3ccccc3S(=O)(=O)N[C@@H]3c4ccccc4C[C@@H]3O)cc2F)cn1` [Example 161, 4′-(5-aminopyrazin-2-yl)-3′-fluoro-N-((1R,2S)-2-hydroxy-2,3-dihydro-1H-inden-1-yl)-[1,1′-biphenyl]-2-sulfonamide] are the same in Ki: 0.4 nM for the first, 0.4 nM for the second.

First: Nc1cnc(-c2ccc(-c3ccccc3S(=O)(=O)N(CCO)C3CCCCC3)cc2F)cn1 [Example 136, 4′-(5-Aminopyrazin-2-yl)-N-cyclohexyl-3′-fluoro-N-(2-hydroxyethyl)biphenyl-2-sulfonamide]
Second: N#CCCN(C1CC1)S(=O)(=O)c1ccccc1-c1ccc(-c2cnc(N)cn2)c(F)c1 [Example 172, 4′-(5-Aminopyrazin-2-yl)-N-(2-cyanoethyl)-N-cyclopropyl-3′-fluorobiphenyl-2-suifonamide]
The Ki of the first is 7.2-fold lower: 0.5 nM for the first, 3.6 nM for the second. The first binds more tightly here.

Going from `Nc1cnc(-c2ccc(-c3ccccc3S(=O)(=O)N(C3CCOCC3)C3CC3)cc2F)cn1` [Example 140, 4′-(5-Aminopyrazin-2-yl)-N-cyclopropyl-3′-fluoro-N-(tetrahydro-2H-pyran-4-yl)biphenyl-2-sulfonamide] to `CC1(NS(=O)(=O)c2ccccc2-c2ccc(-c3cnc(N)cn3)c(F)c2)COC1` [Example 173, 4′-(5-Aminopyrazin-2-yl)-3′-fluoro-N-(3-methyloxetan-3-yl)biphenyl-2-sulfonamide], the Ki falls from 1.4 nM to 0.8 nM (1.7-fold). The second binds more tightly here.

First: Nc1cnc(-c2ccc(-c3ccccc3S(=O)(=O)N3C[C@@H]4C(N)[C@@H]4C3)cc2F)cn1 (stereo partly drawn) [Example 143, (1R,5S)-3-((4′-(5-aminopyrazin-2-yl)-3′-fluoro-[1,1′-biphenyl]-2-yl)sulfonyl)-3-azabicyclo[3.1.0]hexan-6-amine]
Second: CC(C)CS(=O)(=O)c1ccccc1-c1ccc(-c2cnc(N)cn2)c(F)c1 [Example 193, 5-{3-Fluoro-2′-[(2-methylpropyl)sulfonyyl]iphenyl-4-yl}pyrazin-2-amine]
The Ki of the first is 3.6-fold lower: 8.5 nM for the first, 30.9 nM for the second.

Going from `CC(CO)(CO)NS(=O)(=O)c1ccccc1-c1ccc(-c2cnc(N)cn2)c(F)c1` [Example 147, 4′-(5-Aminopyrazin-2-yl)-3′-fluora-N-[2-hydroxy-1-(hydroxymethyl)-1-methylethyl]piphenyl-2-sulfonamide] to `CC[C@@H](CO)NS(=O)(=O)c1ccccc1-c1ccc(-c2cnc(N)cn2)c(F)c1` [Example 153, (S)-4′-(5-aminopyrazin-2-yl)-3′-fluoro-N-(1-hydroxybutan-2-yl)-[1,1′-biphenyl]-2-suifonamide], the Ki rises from 0.6 nM to 2.5 nM (4.2-fold).

Compared with `CC(C)[C@@H](CO)NS(=O)(=O)c1ccccc1-c1ccc(-c2cnc(N)cn2)c(F)c1` [Example 148, (S)-4′-(5-aminopyrazin-2-yl)-3′-fluoro-N-(1-hydroxy-3-methylbutan-2-yl)-[1,1′-biphenyl]-2-sulfonamide], `CC(C)(C)[C@H](CO)NS(=O)(=O)c1ccccc1-c1ccc(-c2cnc(N)cn2)c(F)c1` [Example 150, (R)-4′-(5-aminopyrazin-2-yl)-3′-fluoro-N-(1-hydroxy-3,3-dimethylbutan-2-yl)-[1,1′-biphenyl]-2-sulfonamide] is 1.7-fold lower in Ki: 2.5 nM for the first, 1.5 nM for the second.

Compared with `CC(C)(C)OC(=O)NCCNS(=O)(=O)c1ccccc1-c1ccc(-c2cnc(N)cn2)c(F)c1` [Example 151], `CC(C)(C)S(=O)(=O)c1ccccc1-c1ccc(-c2cnc(N)cn2)c(F)c1` [Example 194, 5-[2′-(tert-Butylsulfonyl)-3-fluorobiphenyl-4-yl]pyrazin-2-amine] is 120-fold higher in Ki: 1.3 nM for the first, 156 nM for the second. The first binds more tightly here.

`Nc1cnc(-c2ccc(-c3ccccc3S(=O)(=O)Nc3ccc(C(F)(F)F)nc3)cc2F)cn1` [Example 163, 4′-(5-Aminopyrazin-2-yl)-3′-fluoro-N-[6-(trifluoromethyl)pyridin-3-yl]biphenyl-2-sulfonamide] and `CNS(=O)(=O)c1cc(C(F)(F)F)ccc1-c1ccc(-c2cnc(N)cn2)c(F)c1` [Example 208, 4′-(5-Aminopyrazin-2-yl)-3′-fluoro-N-methyl-4-(trifluoromethyl)biphenyl-2-sulfonamide] are within 1.5-fold of each other in Ki: 0.5 nM for the first, 0.4 nM for the second.

First: N#CCCN1CCN(S(=O)(=O)c2ccccc2-c2ccc(-c3cnc(N)cn3)c(F)c2)CC1 [Example 174, 3-(4-{[4′-(5-Aminopyrazin-2-yl)-3′-fluoroblphenyl-2-yl]sulfonyl}piperazin-1-yl)propanenitrile]
Second: Nc1cnc(-c2ccc(-c3ccccc3S(=O)(=O)N3CCN(c4cnccn4)CC3)cc2F)cn1 [Example 176, 5-{3-Fluoro-2′-[(4-pyrazin-2-ylpiperazin-1-yl)sulfonyl]biphenyl-4-yl}pyrazin-2-amine]
The Ki of the first is 4.8-fold higher: 2.4 nM for the first, 0.5 nM for the second.

Going from `COC[C@H](C)NS(=O)(=O)c1ccccc1-c1ccc(-c2cnc(N)cn2)c(F)c1` [Example 175, (S)-4′-(5-aminopyrazin-2-yl)-3′-fluoro-N-(1-methoxypropan-2-yl)-[1,1′-biphenyl]-2-sulfonamide] to `CCCS(=O)(=O)c1ccccc1-c1ccc(-c2cnc(N)cn2)c(F)c1` [Example 192, 5-[3-Fluoro-2′-(propylsulfonyl)biphenyl-4-yl]pyrazin-2-amine], the Ki rises from 1.4 nM to 48.3 nM (34-fold).

First: Nc1cnc(-c2ccc(-c3ccccc3S(=O)(=O)N3CCN(c4ncccn4)CC3)cc2F)cn1 [Example 177]
Second: Nc1cnc(-c2ccc(-c3ccccc3Sc3ncccn3)cc2F)cn1 [Example 213, 5-[3-Fluoro-2′-(pyrimidin-2-ylsulfanyl)biphenyl-4-yl]pyrazin-2-amine hydrochloride]
The Ki of the first is 4.8-fold lower: 0.5 nM for the first, 2.4 nM for the second.

First: Nc1cnc(-c2ccc(-c3ccccc3N)cc2F)cn1 [Example 178, 5-(2′-Amino-3-fluorobiphenyl-4-yl)pyrazin-2-amine]
Second: Nc1cnc(-c2ccc(-c3ccccc3SC(F)(F)F)cc2F)cn1 [Example 189, 5-{3-Fluoro-2′-[(trifluoromethyl)-sulfanyl]biphenyl-4-yl}pyrazin-2-amine]
The Ki of the first is 21-fold higher: roughly 1320 nM for the first, 63.2 nM for the second.

Compared with `Nc1cnc(-c2ccc(-c3ccccc3S(=O)(=O)NC3(CO)CCCC3)cc2F)cn1` [Example 179], `Nc1cnc(-c2ccc(-c3ccccc3NS(=O)(=O)N3CCCC3)cc2F)cn1` [Example 181, N-[4′-(5-Aminopyrazin-2-yl)-3′-fluorobiphenyl-2-yl]pyrroildine-1-sulfonamide] is 17-fold higher in Ki: 0.4 nM for the first, 6.7 nM for the second. The first binds more tightly here.

First: CC(C)(C)Sc1ccccc1-c1ccc(-c2cnc(N)cn2)c(F)c1 [Example 190, 5-[2′-(tert-Butylsulfanyl)-3-fluorobiphenyl-4-yl]pyrazin-2-amine]
Second: Nc1cnc(-c2ccc(-c3ccccc3SCCNC(=O)c3ccccc3)cc2F)cn1 [Example 204, N-(2-{[4′-(5-Aminopyrazin-2-yl)-3′-fluorobiphenyl-2-yl]sulfanyl}ethyl)benzamide]
The Ki of the first is 15-fold higher: 66.2 nM for the first, 4.5 nM for the second. The second binds more tightly here.

`Nc1cnc(-c2ccc(-c3ccc(C(F)(F)F)cc3S(=O)(=O)NCCO)cc2F)cn1` [Example 210, 4′-(5-aminopyrazin-2-yl)-3′-fluoro-N-(2-hydroxyethyl)-4-(trifluoromethyl)biphenyl-2-sulfonamide] and `CCNS(=O)(=O)c1cc(C(F)(F)F)ccc1-c1ccc(-c2cnc(N)cn2)c(F)c1` [Example 211, 4′-(5-Aminopyrazin-2-yl)-N-ethyl-3′-fluoro-4-(trifluoromethyl)biphenyl-2-sulfonamide] are within 1.5-fold of each other in Ki: 0.4 nM for the first, 0.5 nM for the second.

Same assay, conditions: human FLAP wild type, a calculated value of 0.000 indicates Ki less than 1 nM

`Nc1cnc(-c2ccc(-c3ccccc3S(=O)(=O)N3c4ccccc4C[C@H]3CO)cc2F)cn1` [Example 135, (S)-(1-{[4′-(5-Aminopyrazin-2-yl)-3′-fluorobiphenyl-2-yl]sulfonyl}-2,3-dihydro-1H-indol-2-yl)methanol] and `Nc1cnc(-c2ccc(-c3ccccc3S(=O)(=O)N[C@@H]3c4ccccc4C[C@@H]3O)cc2F)cn1` [Example 161, 4′-(5-aminopyrazin-2-yl)-3′-fluoro-N-((1R,2S)-2-hydroxy-2,3-dihydro-1H-inden-1-yl)-[1,1′-biphenyl]-2-sulfonamide] cannot be ordered by Ki: less than 1 nM for the first, less than 1 nM for the second.

`Nc1cnc(-c2ccc(-c3ccccc3S(=O)(=O)N3CCN(c4cnccn4)CC3)cc2F)cn1` [Example 176, 5-{3-Fluoro-2′-[(4-pyrazin-2-ylpiperazin-1-yl)sulfonyl]biphenyl-4-yl}pyrazin-2-amine] and `Nc1cnc(-c2ccc(-c3ccccc3S(=O)(=O)N3CCN(c4ncccn4)CC3)cc2F)cn1` [Example 177] cannot be ordered by Ki: less than 1 nM for the first, less than 1 nM for the second.

`Nc1cnc(-c2ccc(-c3ccccc3S(=O)(=O)NC3(CO)CCCC3)cc2F)cn1` [Example 179] and `Nc1cnc(-c2ccc(-c3ccc(C(F)(F)F)cc3S(=O)(=O)NCCO)cc2F)cn1` [Example 210, 4′-(5-aminopyrazin-2-yl)-3′-fluoro-N-(2-hydroxyethyl)-4-(trifluoromethyl)biphenyl-2-sulfonamide] cannot be ordered by Ki: less than 1 nM for the first, less than 1 nM for the second.

Work on `CNS(=O)(=O)c1cc(C(F)(F)F)ccc1-c1ccc(-c2cnc(N)cn2)c(F)c1` [Example 208, 4′-(5-Aminopyrazin-2-yl)-3′-fluoro-N-methyl-4-(trifluoromethyl)biphenyl-2-sulfonamide] yielded a Ki of less than 1 nM.
